Consider five compounds from doi:10.1101/2021.09.28.462122v1 (biorxiv, 2021).

The assay addresses T1, AtGDH (Aspergillus terreus NADP+-specific glutamate dehydrogenase) (Aspergillus terreus, UniProt T2D1F5).
T1 sequence (T2D1F5 1-460): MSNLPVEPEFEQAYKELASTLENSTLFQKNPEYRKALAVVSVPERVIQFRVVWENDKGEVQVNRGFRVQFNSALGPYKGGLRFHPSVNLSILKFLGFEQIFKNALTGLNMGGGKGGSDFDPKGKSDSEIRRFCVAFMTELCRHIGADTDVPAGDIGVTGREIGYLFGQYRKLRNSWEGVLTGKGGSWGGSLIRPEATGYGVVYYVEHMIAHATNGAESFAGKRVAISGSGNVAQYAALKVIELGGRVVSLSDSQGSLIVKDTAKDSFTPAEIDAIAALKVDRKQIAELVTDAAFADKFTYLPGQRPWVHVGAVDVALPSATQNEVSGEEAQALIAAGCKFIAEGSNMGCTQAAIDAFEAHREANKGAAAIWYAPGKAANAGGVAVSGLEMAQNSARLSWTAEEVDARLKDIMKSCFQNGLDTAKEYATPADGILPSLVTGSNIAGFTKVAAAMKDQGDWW
The experiment in a line: NADPH oxidation at […] nm, reductive amination. The class given is biochemical.

Regarding `O=C(O)/C=C/C(=O)O` [fumarate], the affinity, expressed as Ki, was 23.2 mM.

As to `O=C(O)/C=C\C(=O)O` [maleate], the inhibition constant (Ki) (usually a dissociation constant, usually derived from enzyme kinetics or from competition with a known ligand) was determined as 36.2 mM. As for `O=C(O)CC(=O)O` [malonate], the Ki came to 19.5 mM. The result for `O=C(O)CCC(=O)O` [succinate] reads 39.1 mM; that for `O=C(O)C(O)C(O)C(=O)O` (centres unmarked) [tartrate], 50.8 mM.
